Marks after values point to notes of the source that are not given here.
Tests used:
[1] = tested on: Antibiotika-induzierte Kolitis in Hamstern; test: Antibiotic (clindamycin)-induced colitis in hamsters, in vivo; set-up: species or system syrischen Hamstern (LUG)
Description: Man verabreicht männlichen, 80-120 g schweren syrischen Hamstern (LUG) eine einmalige Dosis von 175 mg/kg Clindamycin-phosphat oder Clindamycin-hydrochlorid intraperitoneal, um eine Kolitis zu induzieren. Ungefähr 7 Stunden nach dieser Injektion verabreicht man den Tieren die zu testende Verbindung oral oder intraperitoneal. Während einer Periode von 4 weiteren Tagen wird diese Therapie zweimal täglich wiederholt. Für die orale Verabreichung wurde die zu testende Verbindung in Wasser suspendiert oder in Dimethylsulfoxid gelöst und mittels einer Magensonde verabreicht. Der Effekt der Therapie wurde durch das sogenannte "Hazard"-Verhältnis bestimmt. Es handelt sich dabei um das Verhältnis der Sterblichkeitsrate von Tieren, welche mit der zu testenden Verbindung behandelt worden sind, im Vergleich zu den Tieren, welche nur mit Vehikel behandelt worden sind. Die Sterblichkeitsrate wurde zweimal täglich bestimmt und wurde durch Vergleich der Ueberlebenskurven für jede Gruppe ausgewertet. Für jede Gruppe von Versuchstieren wurde die Kaplan-Meier-Schätzung der Ueberlebenskurve berechnet, und es wurde der Mantel-Cox-Test verwendet, um die Ueberlebenskurve der mit Inhibitor behandelten Gruppe mit derjenigen der nur mit Vehikel behandelten Gruppe zu vergleichen. Ein Hazard-Verhältnis von 1,0 bedeutet, dass der Effekt der Therapie nicht besser ist, als derjenige der mit dem Vehikel allein erzielt wird, währenddem ein Hazard-Verhältnis (>1.0) bedeutet, das die Therapie die Ueberlebensrate im Vergleich zu derjenigen Gruppe, welche nur mit dem Vehikel behandelt worden ist, verbessert.

LTB₄ = test: Rat colon mucosa in vitro (Ussing short-circuit technique), LTB₄-induced electrolyte secretion; type: cell-based, Ratte; settings: 6 animals
Description: (§1) Das Bioassay-System des Versuches mit der Mucosa des Rattenkolons basiert auf der Messung der durch Absorption oder Sekretion bewirkten Aenderungen im Salztransport durch das tierische Gewebe, wobei man die durch Ussing et al. beschriebene Standard-Kurzschluss-Technik verwendet, Acta Physiol. Scand. 23, 110-127 (1951). Diarrhö ist das häufigste Symptom bei gastrointestinalen Entzündungen und tritt bei allen Typen der Enteritis auf. Pantera, et al., Ital. J. Gastroenterol. 13: 24-27 (1981); Sales, et al., Arch. Int. Med. 143: 294-299 (1983); Hodgson, Br. J. Clin. Pharmac. 14: 159-270 (1982). Diarrhö wird durch eine Abnahme in der Salzabsorption oder eine Zunahme in der Salzsekretion im Darm bewirkt und kann durch die oben erwähnte Methode von Ussing et al. in vitro quantifiziert werden. Man entfernt von 200-250 g schweren Tieren ein 1 cm langes Segment des Kolons, behandelt dieses in vitro mit Leukotrienen oder Bradykinin, welche die Salzsekretion fördern, und misst die erhaltene Aenderung im Netto-Salztransport, welche in Gegenwart und in Abwesenheit von 6-Acetyl-7-[5-(4-acetyl-3-hydroxy-2-propylphenoxy)pentyloxy] -3,4-dihydro-2H-1-benzopyran-2-carbonsäure als Hemmer erhalten wird. Gewebeproben werden paarweise in Ussing-Kammern befestigt und mit automatischen Spannungsklemmen (von der University of Iowa Bioengineering Department) kurzgeschlossen. […]

LTD₄ = test: Rat colon mucosa in vitro (Ussing short-circuit technique), LTD₄-induced electrolyte secretion; type: cell-based, Ratte; settings: 6 animals
Description: as §1

LTE₄ = test: Rat colon mucosa in vitro (Ussing short-circuit technique), LTE₄-induced electrolyte secretion; type: cell-based, Ratte; settings: 6 animals
Description: as §1

LTC₄ = test: Rat colon mucosa in vitro (Ussing short-circuit technique), LTC₄-induced electrolyte secretion; type: cell-based, Ratte; settings: 6 animals
Description: as §1

Bradykinin = test: Rat colon mucosa in vitro (Ussing short-circuit technique), bradykinin-induced secretion; type: cell-based, Ratte; settings: Figur 1; result in words
Description: as §1

[2] = tested on: Carrageenin-induzierte Colitis in Meerschweinchen; test: Carrageenin-induced colitis in guinea pigs, in vivo (water transport in distal colon); set-up: species or system Meerschweinchen (Hartley); settings: 10 bzw. 30 mg/kg oral; Figur 5
Description: Der Carrageenin-induzierte-Colitis-Bioassay an Meerschweinchen ist durch A. B. Onderdonk in Inflammatory Bowel Diseases, Martinus Nijhoff Publ., Boston, Massachusetts, Seiten 126-134 (1982) und in Human Intestinal Microflora in Health and Disease (D. J. Hentger. ed), Academic Press, New York, 1983, Seiten 447-479 beschrieben worden. Das aus Rotalgen herstammende Polysaccharid Jotacarrageenin bewirkt in Meerschweinchen eine Colitis, welche der ulcerativen Colitis im Menschen ähnlich ist. Männliche und weibliche, 400-650 g Meerschweinchen (Hartley) erhielten via Trinkwasser täglich eine 3-proz. Lösung von abgebautem Carrageenin. Nach etwa 7 Tagen begannen die Versuchstiere eine Diarrhö zu entwickeln, nahmen an Gewicht nicht mehr zu und wurden lethargisch. Nachdem die Versuchstiere während 14 Tagen auf diese Weise Carrageenin verabreicht erhielten, wurde die Diarrhö quantifiziert, und zwar durch Messung des Wassertransportes in den distalen Teil des Kolons durch einfache Pass-Perfusion unter Verwendung von 14C-Polyäthylenglykol 4000 (PEG 4000) als Marker. Kontrolltiere erhielten eine wässrige Trinklösung, enthaltend 3-proz. mannitol anstelle des Carrageenins. Gleichzeitig wurden zufällig ausgewählte Versuchstiere aus diesen beiden Gruppen zweimal täglich mit der Testsubstanz oral behandelt.

[3] = tested on: Essigsäure-induzierte Colitis in Ratten; test: Acetic acid-induced colitis in rats, in vivo (myeloperoxidase in colon mucosa); set-up: species or system Ratten (Sprague-Dawley)
Description: Der Essigsäure-induzierte-Colitis-Bioassay an Ratten ist durch J.E. Krawisz et al. in Amer. J. Proc. Gastro. Col. Rec. Surg. 31, 11-18 (1980) und P. Sharon und W.F. Stenson in Gastroenterology 88, 55-63 (1985) und 86, 453-460 (1984) beschrieben worden. Die Essigsäure-induzierte Colitis ist durch eine Wanderung von Entzündungszellen in das Kolon charakterisiert. Die Anzahl derartiger Zellen in der Mucosa kann bestimmt werden, indem man die Aktivität der Myeloperoxidase, einem Marker-Enzym für diese Zellen, misst. Eine positive gewünschte Wirkung zeigt sich in einer Reduktion des hohen Myeloperoxidase-Spiegels, der durch die Essigsäure verursacht wird. Männliche, 150-300 g schwere Ratten (Sprague-Dawley) werden während 2 Tagen, zweimal täglich entweder mit dem Vehikel (Wasser oder Dimethylsulfoxid) oder der im Wasser suspendierten oder in Dimethylsulfoxid gelösten Testsubstanz oral vorbehandelt. Am 3. Tag behandelt man die Tiere noch einmal wie an den beiden Vortagen, anästhetisiert mit Metofan, injiziert 2 ml 2,5-proz. Essigsäure mittels einer Spritze in das Lumen des Kolons und unmittelbar danach 3 ml Luft und eine Spüllösung, bestehend aus 3 ml Phosphat-gepufferter Kochsalzlösung, […] genügend lange im Lumen, um eine Entzündung zu induzieren, ohne jedoch schwere Nekrose oder irreversible Schäden zu bewirken). […]

[4] = 10 mg/kg intraperitoneal in 0,075 ml PEG-400, twice daily, >1.0 = survival better than vehicle
[5] = 10 mg/kg oral in 0,15 ml Wasser, twice daily
[6] = Inhibitor Konzentration 1 Mikromol
[7] = Inhibitor Konzentration 10 Mikromol

With `CCCc1c(OCCCCCOc2cc3c(cc2C(C)=O)CCC(C(=O)OC)O3)ccc(C(C)=O)c1O` (racemic) [6-Acetyl-7-[5-(4-acetyl-3-hydroxy-2-propylphenoxy)pentyloxy]-3,4-dihydro-2H-1-benzopyran-2-carbonsäure-methylester] the Hazardverhältnis ([1]; 20 µMol/kg oral (Tabelle 3)) was 3,42.

In the case of `CCCc1c(OCCCOc2ccc3c(=O)cc(CCCC(=O)O)oc3c2CCC)ccc(C(C)=O)c1O` [Vergleichssubstanz 2, 7-[3-(4-Acetyl-3-hydroxy-2-propylphenoxy)propoxy]-4-oxo-8-propyl-4H-1-benzopryran-2-propancarbonsäure, reference compound], the Hazardverhältnis ([1]; 13 mg/kg oral in 0,15 ml Wasser, twice daily) is reported as 1,68 and the “Activity against antibiotic-induced colitis” value ([1]; oral 10 mg/kg) is reported as “inaktive”.

In the case of `CCCc1c(OCC(O)COc2ccc3c(=O)cc(C(=O)O)oc3c2CCC)ccc(C(C)=O)c1O` (stereo not drawn) [Vergleichssubstanz 1, 7-[-3-(4-Acetyl-3-hydroxy-2-propyl-phenoxy)-2-hydroxypropoxy] -4-oxo-8-propyl-4H-1-benzopyran-2-carbonsäure, reference compound], the Hazardverhältnis [1, 4] is reported as 2,02^c, the Hazardverhältnis [1, 5] is reported as 1,42 and the “Activity against antibiotic-induced colitis” value ([1]; oral 10 mg/kg) is reported as “inaktive”.

With `CCCc1c(OCCCCCOc2cc3c(cc2C(C)=O)CCC(C(=O)O)O3)ccc(C(C)=O)c1O` (racemic) [6-Acetyl-7-[5-(4-acetyl-3-hydroxy-2-propylphenoxy)pentyloxy] -3,4-dihydro-2H-1-benzopyran-2-carbonsäure] the “% Inhibition gegen Leukotriene LTB₄” value (LTB₄; [6]) was 44,4±13,1%, the “% Inhibition gegen Leukotriene LTB₄” value (LTB₄; [7]) was 69,6±11,9% and the “% Inhibition gegen Leukotriene LTD₄” value (LTD₄; [6]) was 30,8±15,4%. For the same compound, the “% Inhibition gegen Leukotriene LTD₄” value (LTD₄; [7]) was 62,4±10,0%, the “% Inhibition gegen Leukotriene LTE₄” value (LTE₄; Inhibitor Konzentration 1 Mikromol (µM)) was 29,8±15,0% and the “% Inhibition gegen Leukotriene LTE₄” value (LTE₄; Inhibitor Konzentration 10 Mikromol (µM)) was 44,2± 9,8%. The “% Inhibition gegen Leukotriene LTC₄” value (LTC₄; [6]) was 9,5±19,2%, the “% Inhibition gegen Leukotriene LTC₄” value (LTC₄; [7]) was 57,1+19,7% and the “sekretorische Aktivität von Bradykinin” value (Bradykinin) was “reduzieren”. For the same compound, the Hazardverhältnis [1, 4] was 2,87, the Hazardverhältnis [1, 5] was 3,80 and the Hazardverhältnis ([1]; 60 mg/kg intraperitoneal in 0,075 ml PEG-400, twice daily) was 4,77. For the same compound, the Hazardverhältnis ([1]; 60 mg/kg oral in 0,15 ml Wasser, twice daily) was 12,0, the Hazardverhältnis ([1]; 100 mg/kg oral in 0,15 ml Wasser, twice daily) was 64,2 and the Hazardverhältnis ([1]; 20 µMol/kg oral (Tabelle 3)) was 1,45. For the same compound, the “Histopathological effects on cecum and colon (oedema, bleeding, necrosis, erosions, inflammatory cell infiltration)” value ([1]; 60 oder 100 mg/kg, in most cases) was “reduziert oder gänzlich zum Verschwinden gebracht”, the “Activity against antibiotic-induced colitis” value ([1]; oral doses 10 bis 100 mg/kg) was “aktiv” and the Diarrhö ([1]; result in words) was “reduzierte”. For the same compound, the “Histopathologie des Cecums und des Kolons” value ([1]; result in words) was “verbesserte in einem beträchtlichen Ausmass”, the “Ueberlebensrate der mit Clidamycin behandelten Tiere” value ([1]; result in words) was “erhöht” and the Wassertransport-Raten [2] was “praktisch gleich waren, wie diejenigen der Kontroll-Versuchstiere”. The “Activity (reduction of myeloperoxidase level caused by acetic acid)” value ([3]; oral 30 und 90 mg/kg, Figur 3) was “aktiv”.

“6-Acetyl-7-[5-(4-acetyl-3-hydroxy-2-propylphenoxy)pentyloxy]-3,4-dihydro-2H-1-benzopyran-2-carbonsäure-hexylesters” was tested, and the Hazardverhältnis ([1]; 20 µMol/kg oral (Tabelle 3)) was 1,64.

In the case of `O=C1CCN(c2ccccc2)N1` [Phenidon, reference compound], the “Activity (reduction of myeloperoxidase level caused by acetic acid)” value ([3]; oral 100 und 200 mg/kg, Figur 2) is reported as “aktiv”.

Source: EP0256532B1, “Use of dihydrobenzopyrane derivatives” (F. HOFFMANN-LA ROCHE AG, priority 1986, dated 1988)
